Literature values in patent US12514832B2, “Methods for using low-dose colchicine after myocardial infarction” (INSTITUT DE CARDIOLOGIE DE MONTREAL, priority 2019, dated 2026).

Test system: patients with stable coronary disease
Conditions: LoDoCo, 0.5 mg once daily, 532 patients, not placebo-controlled; cited from earlier work

## COc1cc2c(c(OC)c1OC)-c1ccc(OC)c(=O)cc1[C@@H](NC(C)=O)CC2 [Colchicine, colchicine]
  cardiovascular events versus no colchicine (in words): fewer cardiovascular events than those not receiving colchicine
